Positions count from the first letter of the chain named. Entries after “also recorded” stand apart in the source; their conditions may differ.
How the values were obtained:
WT TK2 [1] = conditions: reported by Ponomarev et al. 2007; cited from earlier work
[2] = accumulation in liver, small intestine, kidneys, urinary bladder only; cited from earlier work
thymidine kinase 2 (TK2) = target: T1, thymidine kinase 2 (TK2) (Homo sapiens, UniProt O00142); conditions: cited from earlier work
T1 sequence (O00142 34-265): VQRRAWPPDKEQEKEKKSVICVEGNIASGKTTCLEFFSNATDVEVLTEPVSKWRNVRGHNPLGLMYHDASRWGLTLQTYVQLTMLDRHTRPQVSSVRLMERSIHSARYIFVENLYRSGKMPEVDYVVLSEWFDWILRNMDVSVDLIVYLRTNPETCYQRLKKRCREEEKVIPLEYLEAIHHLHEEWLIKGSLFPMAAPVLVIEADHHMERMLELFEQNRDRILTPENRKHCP

TK2-N93D = target: T2, TK2-N93D (Homo sapiens, UniProt O00142, N93D); assay: Kinetic analyses of recombinant TK2 (NADH-dependent enzyme coupled assay), TK2-N93D; conditions: 37° C., 1 mM ATP
T2 sequence (O00142 51-265 N93D): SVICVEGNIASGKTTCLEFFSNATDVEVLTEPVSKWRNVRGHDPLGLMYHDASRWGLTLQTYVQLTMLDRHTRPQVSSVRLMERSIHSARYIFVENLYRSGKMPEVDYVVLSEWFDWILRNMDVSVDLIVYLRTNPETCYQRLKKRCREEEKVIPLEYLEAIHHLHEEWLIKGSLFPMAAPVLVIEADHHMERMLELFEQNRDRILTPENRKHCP
Description: (§3) A NADH-dependent enzyme coupled assay (see, e.g. Agarwal, K. C., et al. (1978) Methods Enzymol. 51, 483-490) was used. Using a Cary UV spectrophotometer, measurements were made in triplicate at 37° C. in a buffer containing 100 mM Tris, pH 7.5, 100 mM KCl, 5 mM MgCl2, and 1 mM ATP. For data in which kobs is given, a single nucleoside concentration of 200 μM was used. For data in which both Km and kcat are given, the nucleoside concentration was varied between 15 and 500 μM. TK2 concentration in the cuvette was 400 nM. Data were fit to the Michaelis-Menten equation using SigmaPlot. […] Therefore, all of the kinetic data using the Michaelis-Menten equation without the Hill coefficient is presented.

TK2-N93D/L109F = target: T3, TK2-N93D/L109F (Homo sapiens, UniProt O00142, L109F/N93D); assay: Kinetic analyses of recombinant TK2 (NADH-dependent enzyme coupled assay), TK2-N93D/L109F; assay type: biochemical; conditions: 37° C., 1 mM ATP
T3 construct: hexahistidine (N, cleaved yes); SUMO (N, cleaved yes); made in house; host or cells: Escherichia coli BL21 (DE3) C41, modified pET14b
T3 sequence (O00142 51-265 N93D/L109F): T2 sequence (O00142 51-265 N93D) with L59F
Description: FIG. 34 provides a table that illustrates the kinetics of the phosphorylation of D and L-nucleosides by the TK2 mutants. Kinase assays were performed with recombinant protein with 200 μM of the listed substrate.

TK2-L109F = target: T4, TK2-L109F (Homo sapiens, UniProt O00142, L109F); assay: Kinetic analyses of recombinant TK2 (NADH-dependent enzyme coupled assay), TK2-L109F; conditions: 37° C., 1 mM ATP
T4 sequence (O00142 51-265 L109F): T2 sequence (O00142 51-265 N93D) with D43N, L59F
Description: as §3

[3] = target: deoxycytidine kinase (dCK) (Homo sapiens, UniProt P27707); conditions: cited from earlier work
Chain of deoxycytidine kinase (dCK) (P27707 whole entry): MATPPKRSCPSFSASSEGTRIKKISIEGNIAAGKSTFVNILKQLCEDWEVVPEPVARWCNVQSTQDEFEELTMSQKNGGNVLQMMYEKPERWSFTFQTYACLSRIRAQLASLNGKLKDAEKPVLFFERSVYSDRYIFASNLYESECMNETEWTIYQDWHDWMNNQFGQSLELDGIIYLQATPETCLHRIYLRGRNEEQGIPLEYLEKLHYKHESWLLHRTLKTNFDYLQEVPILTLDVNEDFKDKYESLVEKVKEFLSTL

WT TK2 [4] = target: T5, WT TK2 (Homo sapiens, UniProt O00142); assay: Kinetic analyses of recombinant TK2 (NADH-dependent enzyme coupled assay), WT TK2; assay type: biochemical; conditions: 37° C., 1 mM ATP
T5 construct: hexahistidine (N, cleaved yes); SUMO (N, cleaved yes); made in house; host or cells: Escherichia coli BL21 (DE3) C41, modified pET14b
T5 sequence (O00142 51-265): T2 sequence (O00142 51-265 N93D) with D43N

[5] = Biodistribution of PET reporter probes in mice (microPET/CT); assay type: in vivo, C57/BL6 mice
Description: To identify candidate PRPs, eight nucleoside analogs (FIG. 7A) were synthesized that were amenable to ^18F labeling (the first criterion for PRPs). To identify PRP candidates with rapid clearance from normal tissues and low overall background (second criterion for PRGs), biodistribution studies in mice were performed. It was observed that natural (D) nucleosides had higher background than non-natural (L) nucleoside analogs. […] The next step was to identify a human nucleoside kinase that phosphorylates L-[^18F]FMAU and L-[^18F]FEAU, and can be converted into a new PRG that matches four criteria:
Initially, a group of nucleoside analogs amenable to fluorine-18 labeling were identified. These PET tracers, 5 of which were novel, were then screened to determine their biodistribution in C57/BL6 mice (n=3 for each PET tracer) through dynamic microPET scans. […] Rational design is utilized to introduce mutations into human nucleoside kinase thymidine kinase 2 (TK2) to improve the affinity of the kinase for the top candidate probe. The sensitivity and specificity of the novel PET reporter probe/gene pair was then determined in vitro and in vivo using a murine cancer model.
(§1) Animal studies were approved and carried out according to specific guidelines. C57/BL6 mice were injected with the indicated probe and underwent micro-PET/CT analyses at 1- and 3-h post probe injection (Inveon, Siemens Medical Solutions USA Inc.; microCAT; Imtek Inc.). For tumor imaging studies, SCID mice were injected subcutaneously on day −7 in the right and left flanks with 1×10^6 L1210-PRG-expressing cells in 50% v/v phosphate-buffered saline and 50% v/v Matrigel™ (BD Biosciences). For imaging experiments, mice were kept warm and under gas anesthesia (2% v/v isoflurane) and were injected intravenously with 200 μCi of ^18F-labeled probes. A 3-h interval was allowed between probe administration and microPET/CT scanning Static microPET images were acquired for 600 s. Image data were evaluated in three-dimensional histograms and reconstructed with a zoom factor of 2.1 using three-dimensional ordered set expectation maximization (OSEM) with 2 iterations followed by MAP (maximum a posteriori) reconstruction with 18 iterations (beta=0.1). Images were analyzed using OsiriX Imaging Software Version 3.8.

[6] = system: L1210 tumors expressing TK2-N93D; assay: microPET/CT of SCID mice bearing L1210-PRG tumors (TK2-N93D); assay type: in vivo; conditions: 3 hrs post-injection, FIG. 10D
Description: (§2) To compare TK2, TK2-N93D and HSV1-sr39tk in vivo, PRG-expressing L1210 cells were implanted subcutaneously in SCID mice that were then scanned with L-[^18F]FMAU (FIG. 10A) and [^18F]FHBG (FIG. 10C) on consecutive days. […] Signals obtained with sr39tk were slightly higher than those obtained with the human TK2-N93D PRG (the difference was not statistically significant). […] L-[^18F]FMAU accumulation in TK2-N93D transduced tumors was ˜20 times higher than the accumulation in tumors transduced with the control (eYFP only) vector. While this ratio is higher than the 6.67 ratio reported for WT TK2 as a PRG with D-[^18F]FEAU as the PRP (see, e.g. Ponomarev, V., et al. J Nucl Med 48:819-826, 2007), the HSV1-sr39tk/[^18F]FHBG combination still outperforms the TK2-N93D/L-[^18F]FMAU combination by ˜2-fold. The significance of the 2-fold difference for the sensitivity of the new TK2-N93D PRG can be further investigated in the animal models discussed below (see, e.g. Gerth, M. L., et al. Biochem Biophys Res Commun 354:802-807, 2007; Liu, L., et al. Nucleic Acids Res 37:4472-4481, 2009; Iyidogan, P., et al. Biochemistry 47:4711-4720, 2008; Lutz, S., et al. Chimia (Aarau) 63:737-744 2009).
as §1

[7] = system: L1210 tumors expressing HSV1-sr39tk; assay: microPET/CT of SCID mice bearing L1210-PRG tumors (HSV1-sr39tk); assay type: in vivo
Description: as §2, with “The significance of the 2-fold difference for the sensitivity of the new TK2-N93D PRG can be further investigated in the animal models discussed below (see, e.g. Gerth, M. L., et al. Biochem Biophys Res Commun 354:802-807, 2007; Liu, L., et al. Nucleic Acids Res 37:4472-4481, 2009; Iyidogan, P., et al. Biochemistry 47:4711-4720, 2008; Lutz, S., et al. Chimia (Aarau) 63:737-744 2009).” left out
Animal studies were approved and carried out according to specific guidelines. […] Image data were evaluated in three-dimensional histograms and reconstructed with a zoom factor of 2.1 using three-dimensional ordered set expectation maximization (OSEM) with 2 iterations followed by MAP (maximum a posteriori) reconstruction with 18 iterations (beta=0.1). Images were analyzed using OsiriX Imaging Software Version 3.8. […]

[8] = system: L1210 tumors expressing WT TK2; assay: microPET/CT of SCID mice bearing L1210-PRG tumors (WT TK2); assay type: in vivo; conditions: 3 hrs post-injection, FIG. 10D
Description: as §2, with “The significance of the 2-fold difference for the sensitivity of the new TK2-N93D PRG can be further investigated in the animal models discussed below (see, e.g. Gerth, M. L., et al. Biochem Biophys Res Commun 354:802-807, 2007; Liu, L., et al. Nucleic Acids Res 37:4472-4481, 2009; Iyidogan, P., et al. Biochemistry 47:4711-4720, 2008; Lutz, S., et al. Chimia (Aarau) 63:737-744 2009).” left out
Animal studies were approved and carried out according to specific guidelines. […] Image data were evaluated in three-dimensional histograms and reconstructed with a zoom factor of 2.1 using three-dimensional ordered set expectation maximization (OSEM) with 2 iterations followed by MAP (maximum a posteriori) reconstruction with 18 iterations (beta=0.1). Images were analyzed using OsiriX Imaging Software Version 3.8.

[9] = Human whole-body PET/CT biodistribution of PET reporter probes; assay type: in vivo
Description: All studies involving human volunteers were approved. A healthy person and a healthy volunteer were recruited for the L-^18F-FMAU biodistribution study. Each volunteer received a bolus intravenous injection of ˜56 MBq (1.5 mCi) sterile L-^18F-FMAU and had four consecutive whole-body (starting from just above the head to above the knees, 6 bed positions, 5-min scan at each bed position) PET scans (Biograph 64, Siemens), with the first scan starting shortly after intravenous injection of L-^18F-FMAU. A low dose CT scan was also obtained for attenuation correction. Volunteers urinated after all scans had been performed. The region of interest analysis was performed to measure mean standard uptake values of L-^18F-FMAU in major organs/tissues. To illustrate the biodistribution of ^18F-FHBG, unpublished scan from a previous study (see, e.g. Yaghoubi, S. S., et al. (2009) Nat. Clin. Pract. Oncol. 6, 53-58) was used.

CCc1cn([C@@H]2O[C@H](CO)[C@@H](O)[C@@H]2F)c(=O)[nH]c1=O [D-[^18F]FEAU, 2′-deoxy-2′-^18F-5-ethyl-1-β-D-arabinofuranosyluracil]
ratio of accumulation, PRG versus control (WT TK2 [1]): 6.67
biodistribution as a candidate PRP [2]: favorable biodistribution
activity of kinase towards nucleoside analog (thymidine kinase 2 (TK2)): active towards L-FMAU, D-

Cc1cn([C@H]2O[C@@H](CO)[C@H](O)[C@H]2F)c(=O)[nH]c1=O [L-FMAU]
decrease of kcat relative to WT TK2 (TK2-N93D): 32%
increase of kcat/Km compared with WT TK2 (TK2-N93D): 77%
kcat (L-FMAU)/kcat (D-dT) ratio compared with wild type (TK2-N93D): nearly triples
increase of kcat compared with TK2 (TK2-N93D/L109F): 100%
kcat (L-FMAU)/kcat (D-dT) ratio (TK2-N93D/L109F): 14.9
kcat (L-FMAU)/kcat (D-dT) ratio, higher than that for TK2 (TK2-N93D/L109F): 4 fold
kcat (L-FMAU)/kcat (D-dT) ratio, higher than that for TK2-N93D (TK2-N93D/L109F): ~40%
kcat (L-FMAU)/kcat (D-dT) ratio (TK2-L109F): 2.4
activity of kinase towards nucleoside analog (thymidine kinase 2 (TK2)): substrate for human TK2; also recorded: active towards L-FMAU, D-
activity of kinase towards nucleoside analog [3]: Very low activity with L-FMAU
kcat (L-FMAU)/kcat (D-dT) ratio (WT TK2 [4]): 3.7

Nc1nc2c(ncn2CCC(CO)C[18F])c(=O)[nH]1 (stereo not drawn) [^18F-FHBG, 9-[4-[^18F]fluoro-3-(hydroxymethyl)butyl]guanine, reference compound]
accumulation in the liver ([5]; 3-h time point): neither probe showed any accumulation
accumulation in the gallbladder ([5]; 3 h after administration): 7.45±5.31 % injected dose/g
accumulation in the gallbladder, 18F-FHBG relative to L-18F-FMAU ([5]; 3 h after administration): 4 times
retention in the abdominal cavity, 18F-FHBG relative to L-18F-FMAU ([5]; 3 h after administration): three times higher
retention in the thoracic cavity ([5]; 3 h after administration): very low retention
signals in the GI tract ([5]; 3 h after administration): detected throughout the GI tract
abdominal background ([5]; mice, compared with [18F]FHBG): high abdominal background
[18F]FHBG accumulation in tumors [6]: Neither WT TK2 nor TK2-N93D expressing tumors accumulated detectable amounts
probe uptake in L1210 tumors ([7]; 18F-FHBG, 3 h post-injection): 24.1±6.2 % injected dose/g
HSV1-sr39tk/[18F]FHBG combination outperforms TK2-N93D/L-[18F]FMAU combination ([7]; tumor to control ratio): ~2 fold
[18F]FHBG accumulation in tumors [8]: Neither WT TK2 nor TK2-N93D expressing tumors accumulated detectable amounts
tissues with relatively high signals ([9]; 2 h post-administration): relatively high signals were observed in liver, kidneys, gall bladder, bladder, and the GI tract
tracer background within abdomen and pelvis ([9]; whole-body PET/CT, human): high abdominal background

Reference: patent US20140248212A1, “NON-IMMUNOGENIC POSITRON EMISSION TOMOGRAPHY REPORTER GENE SYSTEMS” (THE REGENTS OF THE UNIVERSITY OF CALIFORNIA, priority 2011, published 2014)
